HELM strings list units from the 5' end as sugar, base in round brackets, then linkage (d deoxyribose, r ribose, m 2'-O-methyl, p phosphodiester). Strings are as the collection lists them; they lack the last nucleoside at the 3' end of the tested compound. [moe] = 2'-O-(2-methoxyethyl) (MOE); [sp] = phosphorothioate linkage; [m5C] = 5-methylcytosine
Molecular target: LRRK2
Assay: mouse, dose not given
Conditions: ASO

Substance | 3 h FOB score
RNA1{[moe]([m5C])[sp].[moe]([m5C])p.[moe](A)[sp].[moe]([m5C])[sp].[moe](A)[sp].d(A)[sp].d(A)[sp].d([m5C])[sp].d(T)[sp].d([m5C])[sp].d(A)[sp].d(T)[sp].d(G)[sp].d(G)[sp].d(A)[sp].[moe]([m5C])p.[moe](T)p.[moe](T)[sp].[moe]([m5C])}$$$$ (last 3' nucleoside missing) | 5 score 0-7
RNA1{[moe](G)[sp].[moe](T)p.[moe](G)[sp].[moe]([m5C])[sp].[moe](A)[sp].d(A)[sp].d(G)[sp].d(T)[sp].d([m5C])[sp].d([m5C])[sp].d(A)[sp].d(A)[sp].d(A)[sp].d(T)[sp].d(G)[sp].[moe](T)[sp].[moe](G)p.[moe](T)[sp].[moe]([m5C])}$$$$ (last 3' nucleoside missing) | 4 score 0-7
RNA1{[moe](G)[sp].[moe](T)p.[moe]([m5C])p.[moe](A)p.[moe](A)[sp].d(A)[sp].d([m5C])[sp].d(T)[sp].d([m5C])[sp].d(T)[sp].d(T)[sp].d([m5C])[sp].d(A)[sp].d(G)[sp].d(A)[sp].[moe](G)p.[moe](T)p.[moe](T)[sp].[moe](T)}$$$$ (last 3' nucleoside missing) | 0 score 0-7
RNA1{[moe](G)[sp].[moe]([m5C])p.[moe](T)p.[moe](T)p.[moe](T)[sp].d([m5C])[sp].d(A)[sp].d(T)[sp].d(A)[sp].d(G)[sp].d([m5C])[sp].d(T)[sp].d(T)[sp].d([m5C])[sp].d([m5C])[sp].[moe](A)p.[moe]([m5C])p.[moe]([m5C])[sp].[moe](A)}$$$$ (last 3' nucleoside missing) | 0 score 0-7

Source: the OligoGym collection
